Results taken from patent US20240197701A1, “ANDROGEN RECEPTOR INHIBITION TO TREAT SEPSIS AND SHOCK” (priority 2021, published 2024).
Like-named read-outs stand apart in the source and are kept apart here.

How the values were obtained:
[1] = tested on: COVID-19; details: intensive care observational series; cited from earlier work
[2] = tested on: COVID-19; details: RECOVERY platform trial; cited from earlier work
[3] = tested on: SARS-COV-2; details: for Resolution of Symptoms Odds ratio / Viral Clearance Odds ratio: multivariate logistic regression, within 7 days, azithromycin with the listed drug(s), hydroxychloroquine = reference, N = 475; for Resolution of Symptoms Odds ratio: except anosmia, ageusia; for Increase in viral clearance rate: first 7 days of therapy; for Increase in viral clearance rate / Increase in symptom resolution rate: versus control; for Increase in symptom resolution rate: first week of therapy; for Viral clearance at seven days in men: spironolactone compared to dutasteride; for Odds ratio for viral clearance within seven days when used with nitazoxanide: multivariate analysis; for Adverse events: short duration administration
[4] = tested on: SARS-COV-2; details: dutasteride 0.5 mg per day, male patients; cited from earlier work
[5] = in vivo; cited from earlier work
[6] = tested on: COVID-19; details: 5 mg daily, without achieving statistical significance; cited from earlier work
[7] = tested on: COVID-19; experiment: Proxalutamide treatment for hospitalized COVID-19 patients, double-blinded placebo-controlled trial, preliminary report; format: in vivo; details: n = 294
[8] = tested on: COVID-19
[9] = tested on: SARS-COV-2; details: cited from earlier work
[10] = tested on: COVID-19; details: cited from earlier work
[11] = tested on: COVID-19; details: single case, after starting proxalutamide; cited from earlier work

C[C@]12CCC(=O)C=C1C=C[C@@H]1[C@@H]2CC[C@@]2(C)[C@H]1CC[C@@]21CCC(=O)O1 [Canrenone]
Fatalities [1]: reduced fatalities

COc1cc2c(c(OC)c1OC)-c1ccc(OC)c(=O)cc1[C@@H](NC(C)=O)CC2 [Colchicine]
28-day mortality rate ratio [2]: 1.01

CCN(CCO)CCCC(C)Nc1ccnc2cc(Cl)ccc12 (stereo not shown) [Hydroxychloroquine]
Resolution of Symptoms Odds ratio [3]: 1 | Viral Clearance Odds ratio [3]: 1

CC(=O)Oc1ccccc1C(=O)Nc1ncc([N+](=O)[O-])s1 [Nitazoxanide]
Resolution of Symptoms Odds ratio [3]: 2.08 | Viral Clearance Odds ratio [3]: 1.88 | Association with faster viral clearance ([3]; two times a day for 6 days combined with azithromycin): not associated faster clearance

C[C@]12C=CC(=O)N[C@@H]1CC[C@@H]1[C@@H]2CC[C@]2(C)[C@@H](C(=O)Nc3cc(C(F)(F)F)ccc3C(F)(F)F)CC[C@@H]12 [dutasteride]
Increase in viral clearance rate [3]: 320% | Increase in symptom resolution rate [3]: 70% | Viral clearance at seven days in men [3]: 21% | Odds ratio for viral clearance within seven days when used with nitazoxanide ([3]; with nitazoxanide): 7.1 | Viral clearance at seven days among nitazoxanide male users ([3]; nitazoxanide male users): 21% | Adverse events [3]: no adverse events noted | Viral clearance at seven days [4]: 64.3% | Half-life [5]: five

CC(C)(C)NC(=O)[C@H]1CC[C@H]2[C@@H]3CC[C@H]4NC(=O)C=C[C@]4(C)[C@H]3CC[C@]12C [finasteride]
Inpatient mortality [6]: reduced inpatient mortality | Half-life [5]: six

CC1(C)C(=O)N(c2ccc(C#N)c(C(F)(F)F)c2F)C(=S)N1c1ccc(CCCc2ncco2)nc1 [proxalutamide]
Mortality (%) Day 14 ([7]; hospitalized COVID-19 patients, proxalutamide 300 mg q.d.): 3.7% | Discharged (%) Day 14 [7]: 89.1% | Full clinical remission (%) Day 14 [7]: 75.9% | HFO, NIV, or MV use, or death (%) Day 14 [7]: 4.8% | Hospital Length Stay (Days) Mean ± SD [7]: 6.3 ± 5.3 days | Hospital Length Stay (Days) Median (IQR) [7]: 5.0 days | Improvement in clinical status - Ordinary scale (days) One point Mean ± SD [7]: 3.0 ± 5.5 days | Improvement in clinical status - Ordinary scale (days) One point Median (IQR) [7]: 1.0 days | Improvement in clinical status - Ordinary scale (days) Two points Mean ± SD [7]: 5.5 ± 7.1 days | Improvement in clinical status - Ordinary scale (days) Two points Median (IQR) [7]: 3.0 days | New mechanical ventilation (MV) or Death (%) Day 14 [7]: 4.4% | No HFO or NIV use (%) Day 14 [7]: 95.2% | No oxygen use (%) Day 14 [7]: 92.5% | 28-day median ordinal scale score ([8]; COVID-19 8-point ordinal scale): 1 | 14-day median ordinal scale score ([8]; COVID-19 8-point ordinal scale, intention-to-treat, proxalutamide 300 mg/day): 1 | Median post-randomization time to recovery ([8]; alive hospital discharge): 5 days | 14-day recovery rate ([8]; alive hospital discharge (scores 1, 2), intention-to-treat): 81.4% | Less likely to die than patients in the control group ([8]; during the study period): 84% | Median hospitalization time (days) ([8]; human, in vivo): eight | Treatment emergent adverse events ([8]; human, in vivo): limited to diarrhea | Difference in the proportion of alive hospital discharge ([8]; increased until day 11): 75% | 28-day all-cause mortality rate ([8]; intention-to-treat): 11.0% | Hazard ratio for all-cause mortality (death) ([8]; over 28 days, versus placebo): 0.16 | Risk ratio for death ([8]; over 28 days, versus placebo): 0.22 | Number needed to treat (NNT) to prevent one death ([8]; over twenty-eight days): 3 | Adverse events grades 4 or 3 ([8]; proxalutamide arm): 2.2% | Diarrhea ([8]; proxalutamide arm): 16.1% | Irritability ([8]; proxalutamide arm): 1.3% | 14-day recovery ratio ([8]; versus placebo): 2.28 | 28-day recovery ratio ([8]; versus placebo): 1.81 | Higher recovery rate than placebo at 28 days ([8]; versus placebo): 81% | Higher recovery rate than placebo at day 14 ([8]; versus placebo): 128% | Viral clearance at seven days in men ([9]; men): 81% | Viral clearance at seven days in women ([9]; women): 85% | Reduction of the risk of hospitalization ([10]; compared to usual care): 91% | 30-day hospitalization rate ([10]; proxalutamide 200 mg for up to seven days, men): 2.2% | Time to striking symptom resolution and laboratory improvement [11]: twenty-four

CC(=O)S[C@@H]1CC2=CC(=O)CC[C@]2(C)[C@H]2CC[C@@]3(C)[C@@H](CC[C@@]34CCC(=O)O4)[C@H]12 [spironolactone]
Increase in viral clearance rate [3]: 320% | Increase in symptom resolution rate [3]: 70% | Viral clearance at seven days in men [3]: 40% | Odds ratio for viral clearance within seven days when used with nitazoxanide ([3]; with nitazoxanide): 10.1 | Adverse events [3]: no adverse events noted | Viral clearance at seven days ([3]; spironolactone initiated at the time of COVID-19 diagnosis): 34% | Viral clearance at seven days, added to ivermectin ([3]; with ivermectin): 26% | Viral clearance at seven days, added to nitazoxanide ([3]; with nitazoxanide): 42%

Ivermectin
Resolution of Symptoms Odds ratio [3]: 1.45 | Viral Clearance Odds ratio [3]: 0.32
